Measurements taken from US20200246308A1, “SYNERGISTIC COMBINATIONS OF UROLITHINS A AND B FOR IMPROVING COGNITIVE CAPACITY OR COGNITIVE FUNCTION” (Natreon, Inc., priority 2018, published 2020).

Assays:
[1] = tested on: scopolamine induced amnesic rat model; test: Y-maze test, scopolamine induced amnesic rat model (Example 9A); assay type: in vivo, Male Wistar rats; conditions: scopolamine 1 mg/kg i.p.; for Curiosity behavior (total arm entries), trial-1 and trial-2 / Spatial recognition memory (known vs novel arm entries %), trial-2: p.o. 7 days: B 50, A 50, B:A 10:50 and 50:50 mg/kg; for Curiosity behavior (total arm entries), trial-1 and trial-2: Shilajit 25 mg/kg b.i.d; for Coping behavior to novel environment (% time in novel arm), trial-2: p.o. 7 days: B 50, A 50, B:A 10:50 and 50:50, Shilajit 50 mg/kg
Protocol: The experiment was conducted in accordance with the Principles of laboratory animal care. Male Wistar rats (200-250 g) were purchased from the Central Animal House, Institute of Medical Sciences, Banaras Hindu University (BHU), Varanasi, India. Experiments on animals were approved by the Institutional Animal Ethics Committee of BHU, Varanasi, India. The animals were housed in polypropylene cages under controlled environmental conditions of temperature of 25±1° C. and 45-55% relative humidity and a 12:12 h light/dark cycle. The experimental animals had free access to commercial rat feed and water ad libitum during the experiment. Animals were acclimatized for at least one week before using them for experiments and exposed only once to the experiment.
Rats were randomly allocated into eight study groups containing six in each group (n=6), as follows:
Drug solution was freshly prepared in 0.3% CMC and administered by oral gavage once a day, for a period of 7 days. Briefly, the whole experiment was conducted for 8 days. Scopolamine (1 mg/kg), a muscarinic receptor antagonist, was dissolved in normal saline (0.9% NaCl) and administered intraperitoneally 1 h after drugs administration on seventh day.
Assessment of short term memory by Y maze test paradigm. The Y-maze test was performed essentially to assess spatial recognition memory, general exploratory behavior and anxiety-like behavior by following the standard protocol (Dellu, F., Mayo, W., Cherkaoui, J., Le Moal, M., Simon, H., “A two-trial memory task with automated recording: study in young and aged rats,” Brain Res. (1992) 588: 132-139). The Y-maze apparatus consists of three identical arms (50 cm long, 16 cm wide and 32 cm high) at 120° angles to each other, radiating out from a central point. Visual cues made from colored construction paper and laboratory glassware were placed around the perimeter of the maze and above the top of the black plexiglass sides and these cues were not repeated for each test to maintain novelty to the animals. The novel arm of the Y-maze was blocked and rats were allowed to visit the other two arms of the maze for 15 min. Four hours after the first phase, animals had free access to all three arms for 5 min. The number of entries in each arm was recorded for a 5-min period. The dependent variables such as the total number of entries in all arms (for the 5 min of trial 1 and 2), the % entries in known and novel arms for the 5 min period of trial 2 and the percentage of ratio of time spent in novel arm to time spent in all the arms and in the center of the apparatus during trial 2 were measured. The total number of entries in all arms (for the 5 min of trial 1 and 2) is indicative of general exploration attitude (curiosity) and the % entries in known versus novel arm for the 5 min period of trial 2 is considered as a measure of arm discrimination (spatial recognition memory). Coping strategy or behavior to novel environment was estimated by the percentage of time spent in novel arm to time spent in all arms and in the center of the apparatus during trial 2. The decrease in the coping behavior to novel environment was considered as increase in anxiety-like behavior. An arm entry was counted when the head and two front paws were inside the arm, and duration of an arm visit was ended when the head and two front paws were outside the arm again.

[2] = tested on: scopolamine induced dementia in rats; test: Y-maze test, scopolamine induced dementia in rats (Study 2); assay type: in vivo, Charles Foster male albino rats; conditions: 50 mg dose orally once daily; for Coping behavior to novel environment (% time in novel arm), trial-2 / Curiosity behavior (total number of entries), trial-1 and trial-2: scopolamine treated rats; for % known and novel arm entries (spatial recognition memory): vs scopolamine treated rats
Protocol: 2.2. Animal subjects. Inbred Charles Foster male albino rats (130-180 g) were obtained from the Central Animal House, Institute of Medical Sciences (IMS), Banaras Hindu University (BHU), Varanasi, Uttar Pradesh, India. These were certified to be pathogen free and were randomly distributed into different experimental groups. The rats were kept in the departmental animal house at an ambient temperature of 25±1° C. and 45-55% RH, with a 12-h light/dark cycle (lights on 7:00-19:00 h). The animals had free access to standard pellet chow and tap water ad libitum. Experiments were conducted between 9:00 and 14:00 h. The behavioral testing was done during the light phase. Animals were housed in groups and acclimatized for at least one week before using them for experiments. Animals were transported in cage covered by dark cloth to the experimental room. The experimental procedures were in compliance with National Institutes of Health Guide for Care and Use of Laboratory Animals.
The rats were pretreated orally for seven days through an orogastric tube with experimental drugs (10, 25 and 50 mg/kg once daily) suspended in 0.3% carboxymethyl cellulose (CMC). The treatment was continued until the end of the experiment procedures (Singh, G. K., Garabadu, D., Muruganadam, A. V., Joshi, V. K., Krishnamurthy, S., “Antidepressant activity of Asparagus racemosus in animal models of depression,” Pharmacol. Biochem. Behav. (2009) 91(3):283-90). Scopolamine was dissolved in water for injection and administered on day 7 after one hour of drug treatment administration. Donepezil (5 mg/kg; i.p.)
was used as standard drug. On day 8 the behavioral experiment was performed. The animals were sacrificed and hippocampus was micro-dissected using the coordinates of the rat brain atlas. All control group animals were treated with the 0.3 ml of vehicle (0.3% CMC suspension) equal to the volume of experimental drugs (Ohj a, R., et al., “Asparagus recemosus enhances memory and protects against amnesia in rodent models,” Brain Cogn. (2010) October; 74(1): 1-9).
Spatial recognition memory, general exploratory behavior, and anxiety-like behavior were assessed by the Y-maze test. Y-maze consists of three similar arms of dimension 50 cm long, 16 cm wide and 32 cm high. In the first trial, the novel arm was blocked and the animal was allowed to move for 15 min in other two arms. In the second trial, the novel arm was opened and the animal was allowed to move for 5 min in all three arms after 4 h of the first trial. The total number of entries in all arms (for 5 min of trial-1 and trial-2) is indicative of general exploration attitude (curiosity). The % entries in known and novel arms for the 5 min period of trial 2 were considered as a measure of spatial recognition memory. Coping strategy to the novel environment was estimated by the percentage of the ratio of time spent in the novel arm to time spent in all arms and in the center of the apparatus during trial 2. The decrease in the coping behavior to the novel environment was considered as an increase in anxiety-like behavior (Krishnamurthy, S., et al., “Risperidone ameliorates post-traumatic stress disorder-like symptoms in modified stress re-stress model,” Neuropharmacology (2013) 75:62-77).

SMILES	Curiosity behavior (total arm entries), trial-1 and trial-2 [1]	Spatial recognition memory (known vs novel arm entries %), trial-2 [1]	Coping behavior to novel environment (% time in novel arm), trial-2 [1]	Coping behavior to novel environment (% time in novel arm), trial-2 [2]	Curiosity behavior (total number of entries), trial-1 and trial-2 [2]	% known and novel arm entries (spatial recognition memory) [2]
O=c1oc2cc(O)ccc2c2ccccc12 [Urolithin B, 3-hydroxy-dibenzo-alpha-pyrone]	attenuated the scopolamine induced decrease in curiosity behavior	significantly reversed the scopolamine induced failed the discrimination behavior but not similar as to the vehicle group	attenuated the scopolamine-induced decrease in coping strategy to a novel environment but not similar to that vehicle group	attenuated the scopolamine-induced decrease in coping strategy	attenuated the scopolamine induced decrease in curiosity behavior	dose dependently reversed the % known and novel arm entries
O=c1oc2cc(O)ccc2c2ccc(O)cc12 [Urolithin A, 3,8-dihydroxy-dibenzo-alpha-pyrone]	attenuated the scopolamine induced decrease in curiosity behavior	significantly reversed the scopolamine induced failed the discrimination behavior but not similar as to the vehicle group	attenuated the scopolamine-induced decrease in coping strategy to a novel environment but not similar to that vehicle group	attenuated the scopolamine-induced decrease in coping strategy	attenuated the scopolamine induced decrease in curiosity behavior	dose dependently reversed the % known and novel arm entries
